This is an account of results in patent US5516797A, “Immunosuppressive compounds” (Vertex Pharmaceuticals, Incorporated, priority 1994, dated 1996).

The test system of experiment [1] is PBLs stimulated with JVM human viral transformed B lymphoblastoid cells. The experiment in a line: MLR bioassay JVM: inhibition of proliferation in mixed lymphocyte reaction. The format is cell-based. As to conditions: Lymphoblastoid cell, pulsed on day 6, harvested 24 h later. Here is the method: (§1) LB and JVMhuman viraltransformed B lymphoblastoid cell lines stimulated t
(§2) proliferate in a mixed lymphocyte reaction (MLR). The compounds are
(§3) evaluated on their ability to inhibit this proliferation.
(§4) Fresh peripheral blood lymphocytes (PBLs) from LeukoPak cells or whole blood from random normal blood donors (tested HIV-negative and hepatitis negative) are isolated and separated by density centrifugation over Histopaque 1077 (Sigma Chemical Co., St. Louis, Mo.). The murine CTLL cytotoxic T cell line and the human Jurkat T cell line are from ATCC (CTLL-2 ATCC TIB214, JURKAT CLONE E6-1 ATCC TIBl52). The human allogeneic B cell lines used for activation of the fresh PBLs are EBV-transformed lymphocytes from normal healthy adult donors with two completely different HLAhaplotypes. All cell lines were routinely tested for the presence of Mycolasma contamination using the GibcoMycotect test kit and are Mycolasma-free. Culture medium consksts of RPMI 1640 (Gibco, Grand Island, N.Y.) containing penicillin (50 U/ml) and streptomycin (50 μg/ml), L-glutamine 2 mM, 2 mercaptoethanol (5×10^-5), 10% heat-inactivated FCS and 10 mM HEPES.
(§5) All chemical stocks were dissolved in DMSO.
(§6) MLR Bioassays ("LB" and "JVM")
(§7) Antigen activated proliferation of PBLs in a primary mixed lymphocyte reaction was assessed in the presence or absence of different concentrations of tested compounds and control drugs. 5×10^4 fresh PBLs were stimulated with 5×10^3 of Mitomycin C treated-allogeneic EBV-transformed β-lymphoglastoid cells, IB and JVM, in a final volume of 200 μl per well in 96-well round-bottomed plates (Mishell, B. B. and S. M. Shiigi, Selected Methods in Cellular Immunology W. H. Freeman and Co., San Francisco, Calif. (1980); Nelson, P. A. et al., Transplantation 50:286 (1990)). Cultures were pulsed on day 6, harvested 24 h later and counted as in previous section.

Experiment [2] deals with PBLs stimulated with LB human viral transformed B lymphoblastoid cells. Briefly: MLR bioassay LB: inhibition of proliferation in mixed lymphocyte reaction. The experiment is classed as cell-based. As to conditions: Lymphoblastoid cell, pulsed on day 6, harvested 24 h later. Here is the method: as §1, §2, §3, §4, §5, §6, §7
For experiment [3], the target named is FK-506 binding protein (FKBP) (Homo sapiens, UniProt P62942). Briefly: Inhibition of PPIase (rotamase) enzyme activity of FKBP (apparent Ki). The format is biochemical. As to conditions: substrate N-succinylAla-Ala-Pro-Phe-p-nitroanilide, chymotrypsin-coupled. The source says: The inhibition of the PPIase (rotamase) enzyme activity of the FKBP (apparent "Ki" values) can also be measured according to the methods described by either Harding, M. W. et al., Nature 341:758-760 (1989) or Siekierka, J. J. et al., Nature 341:755-757 (1989). The cis-trans isomerization of the proline-alanine peptide bond in a model substrate, N-succinylAla-Ala-Pro-Phe-p-nitroanilide, is monitored spectrophotometrically in a coupled assay with chymotrypsin, which releases 4-nitroanilide from the trans form of the substrate. Fischer, G. et al., Nature 337:476-478 (1989). The inhibitory effect of the addition of different concentrations of inhibitor on the extent of the reaction is determined, and analysis of the change in first order rate constant as a function of inhibitor concentration yields an estimate of the apparent Ki value.

Experiment [4] concerns human peripheral blood lymphocytes. Briefly: Mitogenesis assay PMA: inhibition of proliferation of human PBLs. To be noted: Lymphocyte, PMA (10 ng/ml) plus ionomycin (250 ng/ml), 48 h incubation. The experiment is classed as cell-based. Here is the method:
(§8) PMA and OKT3mitogens used to stimulate proliferation of human peripheral
(§9) blood lymphocytes (PBC). Compounds are evaluated on their ability to
as §4, §5
(§10) Mitogenesis Assays ("PMA" and "OKT3")
(§11) After 48 h incubation (37° C., 5% CO2), cells were pulsed with 1 μCi of ^3 H-thymidine, harvested 24 h later with a Tom Tek cell harvester, and counted in LKB β-scintillation counter.

Experiment [5] shares this test system. The experiment in a line: Mitogenesis assay OKT3: inhibition of proliferation of human PBLs. The format is cell-based. To be noted: Lymphocyte, OKT3 (10^-4 dilution final), 48 h incubation. How it is done: as §8, §9, §4, §5, §10, §11

SMILES strings stand for the structures.

FK-506 binding protein (FKBP), sequence (P62942 whole entry): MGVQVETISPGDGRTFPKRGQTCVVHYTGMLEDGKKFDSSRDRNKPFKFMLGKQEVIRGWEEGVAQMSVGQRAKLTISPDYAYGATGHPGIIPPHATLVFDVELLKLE

Usually IC50 stands for the concentration at which inhibition is half-maximal. `O=C(Cc1ccccc1)C(=O)N1CCCC[C@H]1C(=O)OCCCCc1ccccc1` [Compound 95]: the IC50 in experiment [1], in experiment [2], in experiment [4] and in experiment [5] was above 10 µM throughout. Moreover, the Ki in experiment [3] came to 0.35 µM.
Take `COc1cc(C(=O)C(=O)N2CCCC[C@H]2C(=O)OCc2ccc(-c3ccccc3)cc2)cc(OC)c1OC` [Compound 59]: in experiment [3], the Ki was found to be 2 µM.
In the case of `COc1cc(OC)c(OC)cc1/C=C/C(=O)N1CCC[C@H]1C(=O)OCc1ccccc1` [Compound 114], the Ki in experiment [3] came out at 25 µM.
Turning to `CC(C)(C)C(=O)C(=O)N1CCCC[C@H]1C(=O)OCCCCc1ccccc1` [Compound 104], the IC50 in experiment [1] is above 10 µM; in experiment [2], above 10 µM; in experiment [4] it was 4 µM; in experiment [5], above 10 µM. Also, the Ki in experiment [3] stood at 0.18 µM.
Consider `CC(C)Oc1cccc(C(=O)C(=O)N2CCCC[C@H]2C(=O)OCCCCc2ccccc2)c1` [Compound 76], for which the IC50 in experiment [1] is above 10 µM; in experiment [2] it was 9 µM; in experiment [4], 5 µM; in experiment [5], 10 µM. The Ki in experiment [3] was 0.1 µM.
For `C/C(=C\[C@H]1CC[C@H](O)CC1)COC(=O)[C@@H]1CCCCN1C(=O)C(=O)c1ccccc1` [Compound 26], the IC50 in experiment [1] was above 10 µM; in experiment [2] it was above 10 µM; in experiment [4] it was above 10 µM; in experiment [5], 6.5 µM. The Ki in experiment [3] amounted to 0.5 µM.
For the compound `O=C(C(=O)N1CCCC[C@H]1C(=O)OCCCCc1ccccc1)c1ccc2c(c1)OCO2` [Compound 100], the IC50 in experiment [1], in experiment [2], in experiment [4] and in experiment [5] was above 10 µM each time. The Ki in experiment [3] came to 0.25 µM.
Regarding `CCC(C)C(=O)C(=O)N1CCCC[C@H]1C(=O)OCc1ccccc1` (stereo partly shown) [Compound 67], the IC50 in experiment [1], in experiment [2], in experiment [4] and in experiment [5] was above 10 µM throughout. Also, the Ki in experiment [3] came out at 1 µM.
On to `O=C(OCc1ccccc1)[C@@H]1CCCCN1C(=O)/C=C/c1ccccc1` [Compound 123], for which the Ki in experiment [3] came out at 11 µM.
`O=C(C(=O)N1CCC[C@H]1C(=O)OCc1ccccc1)c1ccccn1` [Compound 43]: the Ki in experiment [3] worked out at 300 µM.
`O=C(OCc1ccccc1)[C@@H]1CCCCN1C(=O)/C=C/c1ccco1` [Compound 118]: the Ki in experiment [3] came out at 2.5 µM.
With `COc1cc(C(=O)C(=O)N2CCCC[C@H]2C(=O)OCCC=Cc2ccccc2)cc(OC)c1OC` [Compound 87], the IC50 was above 10 µM in experiment [1], above 10 µM in experiment [2], 7 µM in experiment [4] and above 10 µM in experiment [5]. For the same compound, the Ki in experiment [3] is 0.5 µM.
Turning to `COc1cc(C(=O)C(=O)N2CCCC[C@H]2C(=O)OCc2ccc(Oc3ccccc3)cc2)cc(OC)c1OC` [Compound 73], the IC50 in experiment [1] was 6 µM; in experiment [2], 4.5 µM; in experiment [4], 8 µM; in experiment [5], above 10 µM. Further, the Ki in experiment [3] worked out at 0.8 µM.
As to `O=C(C(=O)N1CCCC[C@H]1C(=O)OCCCCc1ccccc1)c1ccccc1` [Compound 64], the IC50 was above 10 µM in experiment [1], above 10 µM in experiment [2], 10 µM in experiment [4] and 6 µM in experiment [5].
Take `CC(C)Oc1cccc(C(=O)C(=O)N2CCCC[C@H]2C(=O)OCc2ccccc2)c1` [Compound 66]: the IC50 in experiment [1], in experiment [2], in experiment [4] and in experiment [5] was above 10 µM throughout. In experiment [3], the Ki was determined as 0.5 µM.
In the case of `CC(C)(C)c1ccc(C(=O)C(=O)N2CCCC[C@H]2C(=O)OCCCCc2ccccc2)cc1` [Compound 97], the concentration for half-maximal inhibition (IC50) in experiment [1], in experiment [2], in experiment [4] and in experiment [5] was above 10 µM in each case. Also, the Ki in experiment [3] turned out to be 0.6 µM.
Take `C/C(=C\[C@H]1CC[C@@H](O)CC1)COC(=O)[C@@H]1CCCCN1C(=O)C(=O)c1ccccc1` [Compound 25, (E)-3-[cis-4-(hydroxycyclohexyl)]-2-methylprop-2-enyl N-(phenylglyoxyl)-pipecolate]: the IC50 in experiment [1], in experiment [2], in experiment [4] and in experiment [5] was above 10 µM each time. Also, the Ki in experiment [3] was determined as 0.6 µM.
On to `COC(=O)C(=O)N1CCCC[C@H]1C(=O)OC/C(C)=C/c1ccc(O)cc1` [Compound 38], for which the Ki in experiment [3] is 60 µM.
As for `C=CC(=O)N1CCCC[C@H]1C(=O)OCc1ccccc1` [Compound 122], the Ki in experiment [3] turned out to be 300 µM.
With `O=C(C(=O)N1CCCC[C@H]1C(=O)OCc1ccc(-c2ccccc2)cc1)c1ccccc1` [Compound 58], in experiment [3], the Ki was found to be 5 µM.
`C=CCOC(=O)[C@@H]1CCCCN1C(=O)C(=O)c1ccccc1` [Compound 4]: the Ki in experiment [3] came to 8 µM.
Take `O=C(OCc1ccccc1)[C@@H]1CCCCN1C(=O)/C=C/c1ccoc1` [Compound 119]: the Ki in experiment [3] is 2.5 µM.
As for `COc1cc(C(=O)C(=O)N2CCCC[C@H]2C(=O)OCCCc2c[nH]c3ccccc23)cc(OC)c1OC` [Compound 84], the IC50 is above 10 µM in experiment [1], 6 µM in experiment [2], 4.5 µM in experiment [4] and 6 µM in experiment [5].
Turning to `C[C@@H](C(=O)OCc1ccccc1)N(C)C(=O)/C=C/c1ccc2c(c1)OCO2` [Compound 131], the Ki in experiment [3] stood at 50 µM.
With `COc1ccc(OC)c(/C=C/C(=O)N2CCC[C@H]2C(=O)OCc2ccccc2)c1` [Compound 113], the Ki in experiment [3] came to 10 µM.
The same measure, in the same setting: in the case of `O=C(C(=O)N1CCCC[C@H]1C(=O)OCc1ccccc1)c1ccc(F)c(F)c1` [Compound 44] it was 3 µM.
`COc1cc(C(=O)C(=O)N2CCCC[C@H]2C(=O)OCCCCC2CCCCC2)cc(OC)c1OC` [Compound 57]: the IC50 in experiment [1] was 8 µM; in experiment [2], above 10 µM; in experiment [4] it was 4 µM; in experiment [5], 4.5 µM.
As for `O=C(OCc1ccccc1)[C@@H]1CCCCN1C(=O)/C=C/c1cccnc1` [Compound 121], the Ki in experiment [3] stood at 25 µM.
For `O=C(C(=O)N1CCCC[C@H]1C(=O)OCc1ccccc1)c1ccccc1C(F)(F)F` [Compound 55], the Ki in experiment [3] was found to be 5 µM.
In the case of `O=C(C(=O)N1CCCC[C@H]1C(=O)OCCCCC1CCCCC1)c1ccccc1` [Compound 56], the IC50 was 6.5 µM in experiment [1], above 10 µM in experiment [2], above 10 µM in experiment [4] and above 10 µM in experiment [5].
As to `COC(=O)C(=O)N1CCCC[C@H]1C(=O)OC/C(C)=C/c1ccc(OC)c(OC)c1` [Compound 37], the Ki in experiment [3] was found to be 10 µM.
On to `C/C(=C\c1ccc(O)cc1)COC(=O)[C@@H]1CCCCN1C(=O)C(=O)c1ccccc1` [Compound 24], for which the Ki in experiment [3] is 6 µM.
Regarding `C[C@H](NC(=O)/C=C/c1ccc2c(c1)OCO2)C(=O)OCc1ccccc1` [Compound 132, (S)-3-(3,4-Methylenedioxyphenyl)-prop-2-enoylalanine benzyl ester], the Ki in experiment [3] came to 60 µM.
With `O=C(C(=O)N1CCCC[C@H]1C(=O)OCCc1ccccc1)c1ccccc1` [Compound 68], the IC50 in experiment [1], in experiment [2], in experiment [4] and in experiment [5] was above 10 µM in each case.
In the case of `COc1cc(C(=O)C(=O)N2CCCC[C@H]2C(=O)OCc2cccc(Oc3ccccc3)c2)cc(OC)c1OC` [Compound 61], the IC50 in experiment [1] is above 10 µM; in experiment [2] it was above 10 µM; in experiment [4], 4 µM; in experiment [5], 8 µM.
